For 20 compounds, Ki results are on record in patent US10065943B2, “Pyrrolidine derivatives as angiotensin II type 2 antagonists” (NOVARTIS AG, priority 2015, dated 2018).

pKi: −log10 of the molar value.

The target of the experiment is T1, human AT2 receptor (Homo sapiens, UniProt P50052).
T1 construct: membranes prepared in house
T1 sequence (P50052 1-363): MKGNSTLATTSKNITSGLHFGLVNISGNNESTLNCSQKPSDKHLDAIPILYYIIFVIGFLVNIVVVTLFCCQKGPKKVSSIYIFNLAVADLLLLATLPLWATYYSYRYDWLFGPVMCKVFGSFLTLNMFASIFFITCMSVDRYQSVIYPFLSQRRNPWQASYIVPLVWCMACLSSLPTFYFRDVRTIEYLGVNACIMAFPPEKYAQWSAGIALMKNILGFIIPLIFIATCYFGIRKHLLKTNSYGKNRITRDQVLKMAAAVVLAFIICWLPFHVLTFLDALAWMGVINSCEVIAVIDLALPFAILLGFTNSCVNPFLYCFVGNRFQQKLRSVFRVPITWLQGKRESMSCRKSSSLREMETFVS
Description: AT2 receptor binding ([125I]CGP 42112A displacement, CHO-K1 membranes). To be noted: [125I]CGP 42112A 0.05 nM, membranes of CHO-K1 cells expressing human AT2 receptor; Ki from IC50 by Cheng-Prussoff equation; read-out: Ki. An excerpt: Reagents were purchased from Sigma-Aldrich, unless otherwise specified. Dialyzed fetal bovine serum (FBS) was from Life Technologies (cat. no. 10073772). Valiscreen® human angiotensin AT2 receptor cell line (cat. no. ES-070-C), [^125I]CGP 42112A (cat. no. NEX324025UC) and MicroScint™ 40 (cat. no. 6013641) were purchased from PerkinElmer. CGP 42112A (cat. no. 2569) and PD 123,319 ditrifluoroacetate (cat. no. 1361) were from Tocris Biosciences.
• 1. Growth medium • EX-CELL® CHO DHFR^− medium • 10% FBS, dialysed • 1 mM sodium pyruvate • 2 mM L-glutamine • 2. Harvesting buffer • PBS • 2 mM EDTA • 3. Suspension buffer • 50 mM Tris-HCl, pH 7.4 • 10 mM EDTA • 4. Resuspension buffer • 50 mM Tris-HCl, pH 7.4 • 0.1 mM EDTA • 0.1% sucrose • 5. Binding assay buffer • 50 mM Tris-HCl, pH 7.4 • 5 mM MgCl2 • 1 mM EDTA • 0.1% gelatin • 6. Wash buffer • 50 mM Tris-HCl, pH 7.4 Procedure for Membrane Preparation • Valiscreen® CHO-K1 cells stably expressing the human AT2 receptor were cultured in growth medium. • Cells were seeded into T-175 flasks and grown to 70-80% confluence. • Medium was removed from confluent flasks and cells were washed with warm PBS. • Cells were harvested by incubating with harvesting buffer for 10 min at 37° C., and then transferred to a centrifuge tube on ice. • Cells were centrifuged at 200 g for 5 min at 4° C. • Cell pellets were homogenised in ice-cold suspension buffer. • Homogenates were centrifuged at 40,000 g for 15 min at 4° C. • Pellets were resuspended in ice-cold resuspension buffer and centrifuged at 40,000 g for 15 min at 4° C. • Final pellets were homogenised in ice-cold resuspension buffer. • Protein concentrations were determined by BCA assay method with BSA as standard. Compound Preparation
Compounds were prepared from 10 mM stock solutions in 100% DMSO. Dilutions were made using electronic multichannel pipettes.
• Compounds dilutions were prepared in 100% DMSO at 100× final assay concentration. • Compounds were diluted in 100% DMSO to the appropriate maximal concentration. • 30 μL compound was added to row A. • 21.6 μL of 100% DMSO was added to rows B-H. • Transfer 10 μL from row A into row B (half log dilution). • Transfer 10 μL from row B into row C (half log dilution). • Transfer 10 μL from row C into row D (half log dilution). • Transfer 10 μL from row D into row E (half log dilution). • Transfer 10 μL from row E into row F (half log dilution). • Transfer 10 μL from row F into row G (half log dilution). • Transfer 10 μL from row G into row H (half log dilution). Working Plate Preparation (96-Well Plate) • Compounds were diluted 10-fold in assay buffer. • 10 μL compound solution from dose plate was transferred to corresponding well of working plate. • 90 μL assay buffer was added to the wells of working plate. • Working solutions contained 10% DMSO in assay buffer (1% DMSO final assay concentration). Controls • Total binding (high control) was determined in the absence of unlabelled ligand. A solution of 10% DMSO in assay buffer was prepared. • Non-specific binding (low control) was determined in the presence of a vast excess (10 μM) of PD 123,319. 1 mM stock solution of PD 123,319 in water was diluted 10-fold with 10% DMSO in assay buffer. Assay Plate Preparation (96-Well Plate)
15 μL compound solution was transferred to duplicate wells of assay plate. 5 compounds were tested per plate. 15 μL control solutions were transferred to columns 1 and 12 of assay plate.
`CN(C)S(=O)(=O)NC(=O)[C@@H]1C[C@H](N2CCCCc3cc(F)c(F)cc32)CN1C(=O)C(c1ccccc1)c1ccccc1` [Compound 40, (2S,4S)-4-(7,8-Difluoro-2,3,4,5-tetrahydro-1H-benzo[b]azepin-1-yl)-N—(N,N-dimethylsulfamoyl)-1-(2,2-diphenylacetyl)pyrrolidine-2-carboxamide]: the pKi (usually the negative decadic logarithm of the Ki, by convention in mol/L) is 8.03. For `O=C(O)[C@@H]1C[C@H](N2CCOc3ccccc3C2)CN1C(=O)C(c1ccccc1)c1ccccc1` [Compound 19, (2S,4S)-4-(2,3-Dihydrobenzo[f][1,4]oxazepin-4(5H)-yl)-1-(2,2-diphenylacetyl)pyrrolidine-2-carboxylic acid], the pKi is 7.00. For `O=C(O)[C@@H]1C[C@H](N2CCCCc3sccc32)CN1C(=O)C(c1ccccc1)c1ccccc1` [Compound 11, (2S,4S)-1-(2,2-Diphenylacetyl)-4-(5,6,7,8-tetrahydro-4H-thieno[3,2-b]azepin-4-yl)pyrrolidine-2-carboxylic acid] the value was 8.31; for `C[C@@]1(C(=O)O)C[C@H](N2CCCCc3ccccc32)CN1C(=O)C(c1ccccc1)c1ccccc1` [Compound 30, (2S,4S)-1-(2,2-Diphenylacetyl)-2-methyl-4-(2,3,4,5-tetrahydro-1H-benzo[b]azepin-1-yl)pyrrolidine-2-carboxylic acid], 8.48; for `C[C@@]1(C(=O)O)C[C@H](N2CCCCc3cc(F)c(F)cc32)CN1C(=O)C(c1ccccc1)c1ccccc1` [Compound 31, (2S,4S)-4-(7,8-Difluoro-2,3,4,5-tetrahydro-1H-benzo[b]azepin-1-yl)-1-(2,2-diphenylacetyl)-2-methylpyrrolidine-2-carboxylic acid], 7.93. Take `O=C(O)[C@@H]1C[C@H](N2Cc3ccccc3C2)CN1C(=O)C(c1ccccc1)c1ccccc1` [Compound 20, (2S,4S)-1-(2,2-Diphenylacetyl)-4-(isoindolin-2-yl)pyrrolidine-2-carboxylic acid]: the pKi is 6.44. The result for `C[C@@]1(C(=O)NS(=O)(=O)C2CC2)C[C@@H](N2CCCOc3cc(F)c(F)cc32)CN1C(=O)C(c1ccccc1)c1ccccc1` [Compound 42a, (2S,4R)—N-(cyclopropylsulfonyl)-4-(7,8-difluoro-3,4-dihydrobenzo[b][1,4]oxazepin-5(2H)-yl)-1-(2,2-diphenylacetyl)-2-methylpyrrolidine-2-carboxamide] reads 8.30; that for `O=C(O)[C@@H]1C[C@@H](N2CCCOc3ccc(F)cc32)CN1C(=O)C(c1ccccc1)c1ccccc1` [Compound 25, (2S,4R)-1-(2,2-Diphenylacetyl)-4-(7-fluoro-3,4-dihydrobenzo[b][1,4]oxazepin-5(2H)-yl)pyrrolidine-2-carboxylic acid], 8.80; that for `O=C(O)[C@@H]1C[C@H](N2CCCc3ccccc3C2)CN1C(=O)C(c1ccccc1)c1ccccc1` [Compound 18, (2S,4S)-1-(2,2-Diphenylacetyl)-4-(1,3,4,5-tetrahydro-2H-benzo[c]azepin-2-yl)pyrrolidine-2-carboxylic acid], 7.10.

As for `O=C(NS(=O)(=O)C1CC1)[C@@H]1C[C@H](N2CCCCc3cc(F)c(F)cc32)CN1C(=O)C(c1ccccc1)c1ccccc1` [Compound 41, (2S,4S)—N-(Cyclopropylsulfonyl)-4-(7,8-difluoro-2,3,4,5-tetrahydro-1H-benzo[b]azepin-1-yl)-1-(2,2-diphenylacetyl)pyrrolidine-2-carboxamide], the pKi is 7.82. For `NC(=O)[C@@H]1C[C@H](N2CCCCc3ccccc32)CN1C(=O)C(c1ccccc1)c1ccccc1` [Compound 15, (2S,4S)-1-(2,2-Diphenylacetyl)-4-(2,3,4,5-tetrahydro-1H-benzo[b]azepin-1-yl)pyrrolidine-2-carboxamide] the value was 7.18; for `C[C@@]1(C(=O)NS(=O)(=O)C2CC2)C[C@H](N2CCCOc3cc(F)c(F)cc32)CN1C(=O)C(c1ccccc1)c1ccccc1` [Compound 42b, (2S,4S)—N-(cyclopropylsulfonyl)-4-(7,8-difluoro-3,4-dihydrobenzo[b][1,4]oxazepin-5(2H)-yl)-1-(2,2-diphenylacetyl)-2-methylpyrrolidine-2-carboxamide], 7.96; for `O=C(O)[C@@H]1C[C@H](N2CCCCc3cc(Cl)ccc32)CN1C(=O)C(c1ccccc1)c1ccccc1` [Compound 6, (2S,4S)-4-(7-Chloro-2,3,4,5-tetrahydro-1H-benzo[b]azepin-1-yl)-1-(2,2-diphenylacetyl)pyrrolidine-2-carboxylic acid], 7.64. The result for `O=C(NS(=O)(=O)C1CC1)[C@@H]1C[C@H](N2CCCCc3ccccc32)CN1C(=O)C(c1ccccc1)c1ccccc1` [Compound 43, (2S,4S)—N-(Cyclopropylsulfonyl)-1-(2,2-diphenylacetyl)-4-(2,3,4,5-tetrahydro-1H-benzo[b]azepin-1-yl)pyrrolidine-2-carboxamide] reads 8.07; that for `O=C(O)[C@@H]1C[C@H](N2CCCCc3ccc(F)cc32)CN1C(=O)C(c1ccccc1)c1ccccc1` [Compound 2, (2S,4S)-1-(2,2-Diphenylacetyl)-4-(8-fluoro-2,3,4,5-tetrahydro-1H-benzo[b]azepin-1-yl)pyrrolidine-2-carboxylic acid], 8.33; that for `O=C(NS(=O)(=O)C1CC1)[C@@H]1C[C@H](N2CCCOc3cc(F)ccc32)CN1C(=O)C(c1ccccc1)c1ccccc1` [Compound 38, (2S,4S)—N-(Cyclopropylsulfonyl)-1-(2,2-diphenylacetyl)-4-(8-fluoro-3,4-dihydrobenzo[b][1,4]oxazepin-5(2H)-yl)pyrrolidine-2-carboxamide], 8.22. The result for `O=C(O)[C@@H]1C[C@H](N2CCCCc3cccnc32)CN1C(=O)C(c1ccccc1)c1ccccc1` [Compound 12, (2S,4S)-1-(2,2-Diphenylacetyl)-4-(5,6,7,8-tetrahydro-9H-pyrido[2,3-b]azepin-9-yl)pyrrolidine-2-carboxylic acid] reads 7.09; that for `O=C(NS(=O)(=O)C1CC1)[C@@H]1C[C@H](N2CCCOc3ccc(F)cc32)CN1C(=O)C(c1ccccc1)c1ccccc1` [Compound 37, (2S,4S)—N-(Cyclopropylsulfonyl)-1-(2,2-diphenylacetyl)-4-(7-fluoro-3,4-dihydrobenzo[b][1,4]oxazepin-5(2H)-yl)pyrrolidine-2-carboxamide], 8.39; that for `Cc1ccc2c(c1)N([C@H]1C[C@@H](C(=O)O)N(C(=O)C(c3ccccc3)c3ccccc3)C1)CCCC2` [Compound 3, (2S,4S)-1-(2,2-Diphenylacetyl)-4-(8-methyl-2,3,4,5-tetrahydro-1H-benzo[b]azepin-1-yl)pyrrolidine-2-carboxylic acid], 7.47.

On to `C[C@@]1(C(=O)O)C[C@H](N2CCCOc3cc(F)ccc32)CN1C(=O)C(c1ccccc1)c1ccccc1` [Compound 33, (2S,4S)-1-(2,2-Diphenylacetyl)-4-(8-fluoro-3,4-dihydrobenzo[b][1,4]oxazepin-5(2H)-yl)-2-methylpyrrolidine-2-carboxylic acid], for which the pKi was 8.15.
